Measurements reported in patent US20170240556A1, “BIFLUORODIOXALANE-AMINO-BENZIMIDAZOLE KINASE INHIBITORS FOR THE TREATMENT OF CANCER, AUTOIMMUNEINFLAMMATION AND CNS DISORDERS” (4SC DISCOVERY GMBH, priority 2012, published 2017).

Assays:
[1] = biological target: Casein kinase 1 delta (CSKN1D) (Homo sapiens, UniProt P48730); assay: Casein kinase assay, CK1 delta; type: biochemical; conditions: recombinant CSKN1D 5 nM, ATP 10 μM
Protocol: (§1) The recombinant protein Casein kinase 1 delta (CSKN1D) was added to the substrate solution in a concentration of 5 nM and gently mixed. Dilution series in of compounds of the present invention in DMSO were added to the reaction mixture, followed after 20 min by addition of a mixture of ATP and ^33P-ATP (specific activity 0.01 μCi/μl final) to a final concentration of 10 μM. Reactions were carried out at 25° C. for 120 min, followed by spotting the reactions onto P81 ion exchange filter paper. Unbound phosphate was removed by washing of the filters in 0.75% phosphoric acid. […] IC50 values and curve fits were obtained using the program Prism® (Graph Pad Software).

[2] = biological target: Casein kinase 1 epsilon (CSKN1E) (Homo sapiens, UniProt P49674); assay: Casein kinase assay, CK1 epsilon; type: biochemical; conditions: recombinant CSKN1E 30 nM, ATP 10 μM
Protocol: as §1
The above assay was also used to determine the inhibitory capacity of the compounds of the present invention on Casein Kinase 1 epsilon, wherein instead of CSKN1D, recombinant protein Casein kinase 1 epsilon (CSKN1E) was added to the substrate solution in a concentration of 30 nM and gently mixed.

Casein kinase 1 delta (CSKN1D), sequence (P48730 whole entry): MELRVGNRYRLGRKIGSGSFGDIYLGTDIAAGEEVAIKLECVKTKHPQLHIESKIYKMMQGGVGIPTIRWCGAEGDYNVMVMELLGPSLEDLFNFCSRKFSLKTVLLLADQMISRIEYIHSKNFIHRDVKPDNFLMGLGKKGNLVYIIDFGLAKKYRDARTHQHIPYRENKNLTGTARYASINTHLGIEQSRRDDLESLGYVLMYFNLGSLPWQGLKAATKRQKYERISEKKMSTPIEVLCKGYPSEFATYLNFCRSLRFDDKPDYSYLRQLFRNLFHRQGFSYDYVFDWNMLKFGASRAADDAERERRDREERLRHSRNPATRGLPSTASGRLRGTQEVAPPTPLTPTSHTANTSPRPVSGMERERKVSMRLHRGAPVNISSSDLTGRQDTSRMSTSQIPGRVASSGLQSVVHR
Casein kinase 1 epsilon (CSKN1E), sequence (P49674 whole entry): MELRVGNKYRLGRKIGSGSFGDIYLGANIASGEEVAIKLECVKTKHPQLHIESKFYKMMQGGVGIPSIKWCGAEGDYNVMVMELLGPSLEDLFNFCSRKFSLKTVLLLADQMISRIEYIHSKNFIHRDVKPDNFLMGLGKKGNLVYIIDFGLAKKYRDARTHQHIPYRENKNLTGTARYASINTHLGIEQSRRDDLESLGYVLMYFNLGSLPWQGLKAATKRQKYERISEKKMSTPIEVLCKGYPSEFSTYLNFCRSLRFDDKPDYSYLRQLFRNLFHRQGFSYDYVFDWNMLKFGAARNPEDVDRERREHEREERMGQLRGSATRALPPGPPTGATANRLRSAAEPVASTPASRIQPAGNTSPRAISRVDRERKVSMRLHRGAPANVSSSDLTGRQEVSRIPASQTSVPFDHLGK

O=C(Nc1nc2cc3c(cc2[nH]1)OC(F)(F)O3)c1cscn1 [Compound 44, N-(2,2-difluoro-5H-[1,3]dioxolo[4′,5′:4,5]benzo[1,2-d]imidazol-6-yl)thiazole-4-carboxamide]
IC50 [1]: 0.2 to 1 µM
IC50 [2]: 0.2 to 1 µM

CS(=O)(=O)c1ccc(C(=O)Nc2nc3cc4c(cc3[nH]2)OC(F)(F)O4)s1 [Compound 85, N-(2,2-difluoro-5H-[1,3]dioxolo[4′,5′:4,5]benzo[1,2-d]imidazol-6-yl)-5-(methylsulfonyl)thiophene-2-carboxamide]
IC50 [1]: 0.2 to 1 µM
IC50 [2]: 0.2 to 1 µM

COc1ccccc1C(=O)Nc1nc(C(=O)Nc2nc3cc4c(cc3[nH]2)OC(F)(F)O4)co1 [Compound 12, N-(2,2-difluoro-5H-[1,3]dioxolo[4′,5′:4,5]benzo[1,2-d]imidazol-6-yl)-2-(2-methoxybenzamido)oxazole-4-carboxamide]
IC50 [1]: 0.2 to 1 µM
IC50 [2]: > 1 µM

Cc1ccc(C(=O)Nc2nc(C(=O)Nc3nc4cc5c(cc4[nH]3)OC(F)(F)O5)ns2)cc1 [Compound 89, N-(2,2-difluoro-5H-[1,3]dioxolo[4′,5′:4,5]benzo[1,2-d]imidazol-6-yl)-5-(4-methylbenzamido)-1,2,4-thiadiazole-3-carboxamide]
IC50 [1]: 0.2 to 1 µM
IC50 [2]: 0.2 to 1 µM

Nc1c[nH]c(C(=O)Nc2nc3cc4c(cc3[nH]2)OC(F)(F)O4)c1 [Compound 15B, 4-Amino-N-(2,2-difluoro-5H-[1,3]dioxolo[4′,5′:4,5]benzo[1,2-d]imidazol-6-yl)-1H-pyrrole-2-carboxamide]
IC50 [1]: < 0.2 µM
IC50 [2]: 0.2 to 1 µM

Cc1nn(-c2ccc(Cl)c(Cl)c2)c(C)c1C(=O)Nc1nc2cc3c(cc2[nH]1)OC(F)(F)O3 [Compound 14, 1-(3,4-dichlorophenyl)-N-(2,2-difluoro-5H-[1,3]dioxolo[4′,5′:4,5]benzo[1,2-d]imidazol-6-yl)-3,5-dimethyl-1H-pyrazole-4-carboxamide]
IC50 [1]: > 1 µM
IC50 [2]: > 1 µM

O=C(Nc1nc2cc3c(cc2[nH]1)OC(F)(F)O3)c1csc(-c2ccccc2)n1 [Compound 4, N-(2,2-difluoro-5H-[1,3]dioxolo[4′,5′:4,5]benzo[1,2-d]imidazol-6-yl)-2-phenylthiazole-4-carboxamide]
IC50 [1]: 0.2 to 1 µM
IC50 [2]: 0.2 to 1 µM

O=C(Nc1n[nH]c(C(=O)Nc2nc3cc4c(cc3[nH]2)OC(F)(F)O4)n1)c1ccc(Cl)cc1 [Compound 129, 3-(chlorobenzamido)-N-(2,2-difluoro-5H-[1,3]dioxolo[4′,5′:4,5]benzo[1,2-d]imidazol-6-yl)-1H-1,2,4-triazole-5-carboxamide]
IC50 [1]: 0.2 to 1 µM
IC50 [2]: > 1 µM

COc1cc(Nc2ncc(C(=O)Nc3nc4cc5c(cc4[nH]3)OC(F)(F)O5)s2)nc(OC)n1 [Compound 99, N-(2,2-difluoro-5H-[1,3]dioxolo[4′,5′:4,5]benzo[1,2-d]imidazol-6-yl)-2-((2,6-dimethoxypyrimidin-4-yl)amino)thiazole-5-carboxamide]
IC50 [1]: > 1 µM
IC50 [2]: > 1 µM

O=C(Nc1nc2cc3c(cc2[nH]1)OC(F)(F)O3)c1ccc(Cl)cc1Cl [Compound 43, 2,4-dichloro-N-(2,2-difluoro-5H-[1,3]dioxolo[4′,5′:4,5]benzo[1,2-d]imidazol-6-yl)benzamide]
IC50 [1]: 0.2 to 1 µM
IC50 [2]: 0.2 to 1 µM

O=C(Nc1nc2cc3c(cc2[nH]1)OC(F)(F)O3)c1csc(N2CCOCC2)n1 [Compound 37, N-(2,2-difluoro-5H-[1,3]dioxolo[4′,5′:4,5]benzo[1,2-d]imidazol-6-yl)-2-morpholinothiazole-4-carboxamide]
IC50 [1]: < 0.2 µM
IC50 [2]: 0.2 to 1 µM

COc1ccc2cc([C@H](C)C(=O)Nc3nc4cc5c(cc4[nH]3)OC(F)(F)O5)ccc2c1 [Compound 133, (S)-N-(2,2-difluoro-5H-[1,3]dioxolo[4′,5′:4,5]benzo[1,2-d]imidazol-6-yl)-2-(6-methoxymaphthalen-2-yl)propanamide]
IC50 [1]: < 0.2 µM
IC50 [2]: < 0.2 µM

O=C(Nc1nc2cc3c(cc2[nH]1)OC(F)(F)O3)c1csc(-c2ccc3c(c2)CCO3)c1 [Compound 38, N-(2,2-difluoro-5H-[1,3]dioxolo[4′,5′:4,5]benzo[1,2-d]imidazol-6-yl)-5-(2,3-dihydrobenzofuran-5-yl)thiophene-3-carboxamide]
IC50 [1]: < 0.2 µM
IC50 [2]: 0.2 to 1 µM

O=C(Nc1nc2cc3c(cc2[nH]1)OC(F)(F)O3)c1csc(-n2c(=O)n(CCN3CCOCC3)c3ccccc32)n1 [Compound 98, N-(2,2-difluoro-5H-[1,3]dioxolo[4′,5′:4,5]benzo[1,2-d]imidazol-6-yl)-2-(3-(2-morpholinoethyl)-2-oxo-2,3-dihydro-1H-benzo[d]imidazol-1-yl)thiazole-4-carboxamide]
IC50 [1]: 0.2 to 1 µM
IC50 [2]: > 1 µM

O=C(Nc1nc2cc3c(cc2[nH]1)OC(F)(F)O3)c1csc(-c2ccc(C(F)(F)F)cc2)n1 [Compound 5, N-(2,2-difluoro-5H-[1,3]dioxolo[4′,5′:4,5]benzo[1,2-d]imidazol-6-yl)-2-(4-(trifluoromethyl)phenyl)thiazole-4-carboxamide]
IC50 [1]: > 1 µM
IC50 [2]: > 1 µM

O=C(Nc1n[nH]c(C(=O)Nc2nc3cc4c(cc3[nH]2)OC(F)(F)O4)n1)c1ccc([N+](=O)[O-])cc1 [Compound 61, N-(2,2-difluoro-5H-[1,3]dioxolo[4′,5′:4,5]benzo[1,2-d]imidazol-6-yl)-3-(4-nitrobenzamido)-1H-1,2,4-triazole-5-carboxamide]
IC50 [1]: > 1 µM
IC50 [2]: > 1 µM

Nc1ncc(Br)nc1C(=O)Nc1nc2cc3c(cc2[nH]1)OC(F)(F)O3 [Compound 22, 2-amino-6-bromo-N-(2,2-difluoro-5H-[1,3]dioxolo[4′,5′:4,5]benzo[1,2-d]imidazol-6-yl)pyrazine-2-carboxamide]
IC50 [1]: 0.2 to 1 µM
IC50 [2]: > 1 µM

O=C(Nc1nc2cc3c(cc2[nH]1)OC(F)(F)O3)c1ccccc1OC(F)(F)F [Compound 47, N-(2,2-difluoro-5H-[1,3]dioxolo[4′,5′:4,5]benzo[1,2-d]imidazol-6-yl)-2-(trifluoromethoxy)benzamide]
IC50 [1]: 0.2 to 1 µM
IC50 [2]: > 1 µM

O=C(Nc1nc2cc3c(cc2[nH]1)OC(F)(F)O3)c1csc2ccccc12 [Compound 31, N-(2,2-difluoro-5H-[1,3]dioxolo[4′,5′:4,5]benzo[1,2-d]imidazol-6-yl)benzo[b]thiophene-3-carboxamide]
IC50 [1]: < 0.2 µM
IC50 [2]: 0.2 to 1 µM

CC(=O)c1c[nH]c(C(=O)Nc2nc3cc4c(cc3[nH]2)OC(F)(F)O4)c1 [Compound 104, 4-acetyl-N-(2,2-difluoro-5H-[1,3]dioxolo[4′,5′:4,5]benzo[1,2-d]imidazol-6-yl)-1H-pyrrole-2-carboxamide]
IC50 [1]: < 0.2 µM
IC50 [2]: < 0.2 µM

O=C(Nc1nc2cc3c(cc2[nH]1)OC(F)(F)O3)c1csc(-c2ccc3c(c2)OCO3)n1 [Compound 39, 2-(benzo[d][1,3]dioxol-5-yl)-N-(2,2-difluoro-5H-[1,3]dioxolo[4′,5′:4,5]benzo[1,2-d]imidazol-6-yl)thiazole-4-carboxamide]
IC50 [1]: > 1 µM
IC50 [2]: 0.2 to 1 µM

Cc1cc(C(=O)Nc2nc3cc4c(cc3[nH]2)OC(F)(F)O4)c(C)s1 [Compound 28, N-(2,2-difluoro-5H-[1,3]dioxolo[4′,5′:4,5]benzo[1,2-d]imidazole-6-yl)-2,5-dimethylthiophene-3-carboxamide]
IC50 [1]: 0.2 to 1 µM
IC50 [2]: 0.2 to 1 µM

O=C(Nc1nc2cc3c(cc2[nH]1)OC(F)(F)O3)c1nc(NC(=O)c2ccc(Cl)cc2Cl)n[nH]1 [Compound 51, 3-(2,4-dichlorobenzamido)-N-(2,2-difluoro-5H-[1,3]dioxolo[4′,5′:4,5]benzo[1,2-d]imidazol-6-yl)-1H-1,2,4-triazole-5-carboxamide]
IC50 [1]: < 0.2 µM
IC50 [2]: 0.2 to 1 µM

O=C(Nc1nc(C(=O)Nc2nc3cc4c(cc3[nH]2)OC(F)(F)O4)ns1)c1cccc(Cl)c1 [Compound 57]
IC50 [1]: < 0.2 µM
IC50 [2]: < 0.2 µM

O=C(Nc1nc2cc3c(cc2[nH]1)OC(F)(F)O3)c1cc(Cl)ccc1O [Compound 86, 5-chloro-N-(2,2-difluoro-5H-[1,3]dioxolo[4′,5′:4,5]benzo[1,2-d]imidazol-6-yl)-2-hydroxybenzamide]
IC50 [1]: > 1 µM
IC50 [2]: > 1 µM

O=C(Nc1nc2cc3c(cc2[nH]1)OC(F)(F)O3)c1cn(-c2ccccc2)nc1C(F)(F)F [Compound 16, N-(2,2-difluoro-5H-[1,3]dioxolo[4′,5′:4,5]benzo[1,2-d]imidazol-6-yl)-1-phenyl-3-(trifluoromethyl)-1H-pyrazole-4-carboxamide]
IC50 [1]: 0.2 to 1 µM
IC50 [2]: 0.2 to 1 µM

O=C(Nc1nc2cc3c(cc2[nH]1)OC(F)(F)O3)c1ccncc1 [Compound 18, N-(2,2-difluoro-5H-[1,3]dioxolo[4′,5′:4,5]benzo[1,2-d]imidazol-6-yl)isonicotinamide]
IC50 [1]: < 0.2 µM
IC50 [2]: 0.2 to 1 µM

NC(=O)c1ccc(C(=O)Nc2nc3cc4c(cc3[nH]2)OC(F)(F)O4)cc1 [Compound 111, N^1-(2,2-difluoro-5H-[1,3]dioxolo[4′,5′:4,5]benzo[1,2-d]imidazol-6-yl)terephthalamide]
IC50 [1]: < 0.2 µM
IC50 [2]: < 0.2 µM

O=C(Nc1nc2cc3c(cc2[nH]1)OC(F)(F)O3)c1csc(Nc2ccc(OC(F)(F)F)cc2)n1 [Compound 23, N-(2,2-difluoro-5H-[1,3]dioxolo[4′,5′:4,5]benzo[1,2-d]imidazol-6-yl)-2-((4-(trifluoromethoxy)phenyl)amino)thiazole-4-carboxamide]
IC50 [1]: > 1 µM
IC50 [2]: > 1 µM
